How the values were obtained:
G-quadruplexes = experiment: Binding to G-quadruplexes, general statements; settings: all of the tested G-quadruplexes, ITC, compare Tables 2 and 3
hTel22 [1] = experiment: ESI mass spectrometry of hTel22 with excess ligand; format: binding, human; settings: free DNA present even in excess ligand
Experimental: Electrospray Ionization Mass Spectrometry. ESI-MS experiments were carried out on a Bruker MicrOTOFQ mass spectrometer. Data acquisition was set to operate in negative ion mode. All experiments were performed in 50 mM ammonium acetate buffer containing 20% HPLC grade methanol and adjusted with 1 N KOH solution to reach pH of 7.0. The WT hTel 22-mer G-quadruplex sample was prepared at a concentration of approximately 10 μM in the ammonium acetate buffer and was exhaustedly dialyzed. Stock solutions of DMZ and Triazene-1 were prepared in the final dialysate buffer at concentration as high as 300 μM. The ESI-MS samples were prepared by mixing the DNA and ligand stock solutions to yield a mixture containing excess of each ligand per equivalence of DNA. The MS capillary voltage was set to +3500 V, dry N2 gas flow was adjusted to 0.5 L/min at 110° C., and the G-quadruplex/ligand samples were directly infused into the MS by using a kD Scientific syringe pump set to a flow rate of 200 μL/hour. Data processing was performed by using Bruker Daltonics Data Analysis program.

c-MYC G-quadruplex = experiment: FRET melting in competition with duplex DNA; format: binding; settings: 1 μM ligand, 0.2 μM c-MYC, up to 500 equivalence of double-stranded DNA
Experimental: FRET DNA melting in competition with duplex DNA. FRET competition assay was performed by adding 2 μM, 20 μM and 100 μM double-stranded competitor 26ds DNA (5′-CAATCGGATCGAATTCGATCCGATTG-3′) (SEQ ID NO: 16) in the presence of 0.2 μM c-MYC G-quadruplex and 1 μM DMZ analogs. Both c-MYC G-quadruplex and 26ds DNA were diluted in 60 mM potassium cacodylate buffer (pH 7.2) and then annealed by heating at 85° C. for 10 min followed by cooling to room temperature in the heating block. Experiments were performed in triplicate.

[2] = tested on: B-DNAs containing the AT rich sequence; settings: measured by NMR, Jenkins et al.; cited from earlier work
hTel22 [3] = experiment: CD titration with hTel22; format: binding, human; settings: K+ Tris buffer
Experimental: (§1) Circular Dichroism (CD). CD titration experiments were performed with an Olis DSM-20 spectropolarimeter (Bogart, Ga.). All measurements were done at 25° C. using a 1 cm quartz cuvette and covering a spectral range of 220-420 nm. […] Stock solutions of the ligand were added in small amount to reach a molar ratio of 1:1, 3:1, 6:1, and 10:1 of ligand per equivalence of DNA.

c-kit1 = experiment: NMM displacement assay; format: binding; settings: NMM 1 μM, ligand 0-200 μM
Experimental: Displacement assays with the G-quadruplex binder, NMM. In these assays, the triazene ligand was used at various concentrations: 0, 5, 10, 20, 50, 100, and 200 μM; and the DNA concentration was kept at 1 μM, whereas the concentration of NMM was 1 μM. The experiments were performed in 50 mM Tris-HCl buffer (pH 7.5) in the presence of 50 mM KCl. The excitation wavelength used for NMM was 400 nm and the emission was monitored between 550 and 700 nm (slit width=5 nm, scan speed=600 nm/min, averaging time=0.1 sec, data interval=1 nm, PMT detector voltage=600 V, measurement temperature=20° C.). The sample was initially heated to 95° C. and kept at this temperature for 5 min without ligand or NMM and then cooled down to room temperature for 15 min. Subsequently, the triazene ligand was added to the DNA and incubated for ˜12 h.

27mer WT bcl-2 = experiment: CD titration with bcl-2 G-quadruplex; format: binding; settings: K+ Tris buffer
Experimental: as §1

7bp HP = experiment: ITC titration with 7 bp hairpin without A2T2; format: binding; settings: 20 mM Tris, 100 mM KCl, pH 7.2
Experimental: Isothermal titration calorimetry. ITC experiments were performed using a VP-ITC calorimeter (GE-Healthcare). A typical ITC experiment involved as many as addition of 28 (10 μL) injections of as high as 1 mM ligand solutions into ˜1.5 mL of a dilute DNA solution (10 μM). Corrected titration curves were achieved by subtracting the blank titration data from the ITC-data for the ligand-DNA titrations. Corrected ITC titrations were fit with a nonlinear regression algorithm again using the CHASM ITC data analysis program developed in our laboratory.
DNA stock solutions were prepared by reconstituting the lyophilized oligonucleotide into 20 mM Tris buffer with a salt concentration of 100 mM KCl and a pH of 7.2. Approximately 2 mL of the oligonucleotide was dialyzed (1000 Mw cutoff membrane) against three changes of buffer solution (1 L, 24 h each) at 4° C. The concentrations of stock DNA solutions were verified using UV-Vis. G-Quadruplex DNAs were annealed by quickly heating to sample to 100° C., holding at 100° C. for ten minutes then slowly cooling to 5° C. over three hours period. Molar extinction coefficient of the DNAs were determined using a nearest-neighbor method for single stranded DNA. The extinction coefficients at 260 nm for the WT 27-mer bcl-2, WT 24-mer c-myc, WT 22-mer human telomere hTel sequences are 267,200 M^−1cm^−1, 248,100 M^−1cm^−1, and 228,500 M^−1cm^−1 respectively. […]

Row | SMILES | binding less than DMZ (G-quadruplexes) | binding affinity in words (hTel22 [1]) | effect of competitor double-stranded DNA on Tm of c-MYC (c-MYC G-quadruplex) | Kavg, binding affinity [2] | effect on structure of G-quadruplex (CD) (hTel22 [3]) | competition with NMM for c-kit1 binding (c-kit1) | CD signal of G-quadruplex upon complexation (27mer WT bcl-2) | K2 (7bp HP)
1 | N=C(N)c1ccc(NN=Nc2ccccc2)cc1 [DMZ1] | 4-5 orders of magnitude | low binding affinity | did not affect the Tm of c-MYC | – | – | – | – | –
2 | N=C(N)c1ccc(/N=N/Nc2ccc(C(=N)N)cc2)cc1 [DMZ, Diminazene aceturate, reference compound] | – | – | – | ≈ 1×10^6 M^−1 | very little effect on the structure | could indeed compete with NMM for c-kit1 binding | dramatically decreased | 18000 M⁻¹
